Results reported in ChEMBL document CHEMBL4138169, “Biological activity of dihydropyrimidinone (DHPM) derivatives: A systematic review” (Eur J Med Chem, 2018).

Biological target: Cav1.2 (voltage-dependent L-type calcium channel subunit alpha-1C) (Homo sapiens, UniProt Q13936)
Experiment: Inhibition of human Cav1.2 expressed in HEK293 cells assessed as reduction in Ca2+ uptake at 100 uM measured as first 2 mins sampled at a frequency of one sample every second and the last 12 min at a frequency of one sample every 5 secs by fluo-3AM-based FLIPR assay
Assay type: cell-based
Details: HEK293 cells that express human Cav1.2

Cav1.2 (voltage-dependent L-type calcium channel subunit alpha-1C), sequence (Q13936 whole entry): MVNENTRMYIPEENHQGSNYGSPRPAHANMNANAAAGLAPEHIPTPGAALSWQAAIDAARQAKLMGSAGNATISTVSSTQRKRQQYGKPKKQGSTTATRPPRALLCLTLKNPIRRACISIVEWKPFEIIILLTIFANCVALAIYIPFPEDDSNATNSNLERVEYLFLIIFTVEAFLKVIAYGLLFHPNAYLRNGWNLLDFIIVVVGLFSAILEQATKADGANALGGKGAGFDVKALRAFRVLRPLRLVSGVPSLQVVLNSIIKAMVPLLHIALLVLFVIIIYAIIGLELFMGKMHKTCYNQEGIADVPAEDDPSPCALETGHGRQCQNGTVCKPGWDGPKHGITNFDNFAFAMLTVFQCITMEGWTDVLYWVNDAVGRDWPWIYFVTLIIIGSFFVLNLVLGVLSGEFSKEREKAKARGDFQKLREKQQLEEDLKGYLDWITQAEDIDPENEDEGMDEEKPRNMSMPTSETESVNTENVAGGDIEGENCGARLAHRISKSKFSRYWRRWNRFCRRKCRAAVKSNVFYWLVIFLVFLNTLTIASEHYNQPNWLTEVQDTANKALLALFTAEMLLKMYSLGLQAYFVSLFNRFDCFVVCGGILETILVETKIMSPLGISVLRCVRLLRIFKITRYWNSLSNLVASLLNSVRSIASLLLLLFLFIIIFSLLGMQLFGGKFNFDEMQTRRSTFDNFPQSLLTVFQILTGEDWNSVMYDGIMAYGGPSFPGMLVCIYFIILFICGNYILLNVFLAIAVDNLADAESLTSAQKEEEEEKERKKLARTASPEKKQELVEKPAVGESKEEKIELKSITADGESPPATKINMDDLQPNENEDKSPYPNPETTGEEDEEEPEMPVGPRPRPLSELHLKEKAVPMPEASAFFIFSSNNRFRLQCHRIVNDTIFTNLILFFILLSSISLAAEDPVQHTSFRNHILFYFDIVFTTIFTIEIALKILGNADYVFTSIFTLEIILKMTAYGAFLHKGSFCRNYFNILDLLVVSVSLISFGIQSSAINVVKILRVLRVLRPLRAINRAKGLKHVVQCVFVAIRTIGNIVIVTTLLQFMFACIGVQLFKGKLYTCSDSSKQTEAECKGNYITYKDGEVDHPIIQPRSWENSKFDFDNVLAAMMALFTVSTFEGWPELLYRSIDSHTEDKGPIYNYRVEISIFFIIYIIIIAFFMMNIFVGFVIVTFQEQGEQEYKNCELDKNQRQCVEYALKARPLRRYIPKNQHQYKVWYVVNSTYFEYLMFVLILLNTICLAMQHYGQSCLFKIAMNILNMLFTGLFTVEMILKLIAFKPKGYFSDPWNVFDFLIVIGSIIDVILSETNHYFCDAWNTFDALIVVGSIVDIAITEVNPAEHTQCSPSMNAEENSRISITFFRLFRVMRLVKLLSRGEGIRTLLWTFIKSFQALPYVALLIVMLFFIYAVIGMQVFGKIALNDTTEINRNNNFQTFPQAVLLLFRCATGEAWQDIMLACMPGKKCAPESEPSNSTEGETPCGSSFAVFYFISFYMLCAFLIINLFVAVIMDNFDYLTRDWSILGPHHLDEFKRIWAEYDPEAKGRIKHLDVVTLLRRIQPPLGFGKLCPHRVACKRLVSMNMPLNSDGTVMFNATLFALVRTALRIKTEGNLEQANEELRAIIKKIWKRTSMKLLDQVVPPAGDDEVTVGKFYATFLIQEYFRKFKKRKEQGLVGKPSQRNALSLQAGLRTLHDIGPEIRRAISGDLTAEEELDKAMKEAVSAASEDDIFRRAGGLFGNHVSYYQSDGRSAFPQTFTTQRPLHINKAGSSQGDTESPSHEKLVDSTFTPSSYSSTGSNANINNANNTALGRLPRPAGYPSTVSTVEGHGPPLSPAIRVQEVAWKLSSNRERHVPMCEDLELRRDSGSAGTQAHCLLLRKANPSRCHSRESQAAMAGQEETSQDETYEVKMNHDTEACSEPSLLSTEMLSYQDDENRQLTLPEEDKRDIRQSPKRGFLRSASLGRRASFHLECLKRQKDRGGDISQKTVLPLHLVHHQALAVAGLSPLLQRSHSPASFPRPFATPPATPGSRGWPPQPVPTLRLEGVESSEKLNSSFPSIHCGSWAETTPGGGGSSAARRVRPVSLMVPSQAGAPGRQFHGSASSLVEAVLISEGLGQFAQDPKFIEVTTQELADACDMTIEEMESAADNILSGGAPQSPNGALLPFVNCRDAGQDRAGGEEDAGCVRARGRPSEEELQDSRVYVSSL

## CCOC(=O)C1=C(C)NC(=S)NC1c1cccc(O)c1 (stereo unspecified) [MONASTROL]
  inhibition at 100 µM: 70%
